From patent publication US9828299B2, “Methods for rendering micellar coordination complexes safe for the treatment of plants and formulations for same” (Innovation Hammer LLC, priority 2012, dated 2017)

Columns and labels:
Petunia = experiment: Effective foliar application dose of safened ketoester formulations (synergism EAA/cosolvent); format: in vivo
[1] = tested on: waxy foliar surfaces of oleander leaves; experiment: Effective spreading of water droplets on waxy foliar surfaces, determined visually; conditions: oleander leaf, visual determination
Description: Experimental biology investigations show an exemplary synergism of EAA to random block copolymer (RBC) using the formulations of the invention to visually determine the effect of concentration of the compounds on the effective spreading of water droplets on waxy foliar surfaces of oleander leaves. The following is an exemplary effective spreading of water droplet on a waxy leaf based on EAA synergist: • Leaf Plant Type Effective water droplet spreading • RBC EAA RBC+EAA • Oleander 0.6% 1% 0.3%+0.86%

[2] = Critical micelle concentration; format: physicochemical
Description: Ketoesters also are a source of metabolizable micellar nanoparticles for transepidermal transport; i.e., at or above the CMC of a ketoester. For example, when applied to a leaf at or above the CMC 6.48 mol % of the β-ketoester, EAA is an effective wetter and spreader of water-based solutions. This is particularly true of EAA when applied at CMC on leaves of green plants. Furthermore, by bringing the ketoester to CMC, other compounds in solution synergistically rise to CMC. For example, in the embodiments disclosed herein, physical characteristics of the CMC of the ketoester, MAA, are applied to create zinc depots.

[3] = Solubility of ketoester coordination complex
Procedure: One suitable coordination complex may be made, for example, by dissolving 10 mg ferric nitrate nonahydrate, in 1 ml water with stirring at room temperature until the solution is clear with all crystals dissolved; to the aqueous iron solution, 1 ml MAA is added with rapid stirring for 5-50 minutes or more to allow formation of the coordination complex. […] Other compositions include the following: micellar ketoester-zinc-ketoester, Zn-MNP; and micellar ketoester-copper-ketoester, Cu-MNP.
A process for novel synthesis of an MNP from iron salt is as follows: The aqueous saturated solution of 1 g ferric chloride hexahydrate is dissolved in 10 ml EAA with rapid stirring for 1 minute or more to the formation of the coordination complex.

CCOC(=O)CC(C)=O [EAA, ethyl acetoacetate]
effective foliar application dose (Petunia): 100 mM | Effective water droplet spreading (concentration) [1]: 1% | CMC (critical micelle concentration) [2]: 6.48 mol %

CCOC(=O)CC(C)=O.[Fe+3] [Fe-EAA, ferric(III)-ethyl acetoacetate]
solubility in IPA ([3]; IPA): soluble | solubility in water ([3]; water): insoluble
